What follows are compounds tested on Human RSV-A (“Long” strain) (assay: RSV-A assay: CPE in Hep-2 cells, ATPlite readout). Conditions: human respiratory syncytial virus, 120 h, MOI 0.1, 5-day incubation.
Type: cell-based
Text: Hep-2 cells, (originally derived from tumors grown in irradiated-cortisonised weanling rats that had been injected with epidermoid carcinoma tissue from a person's larynx, but later found to be indistinguishable from HeLa cells by PCR DNA analysis), were used for the culturing of genotype A, “Long” strain RSV. Flasks were inoculated with RSV and viral stocks were collected once cytopathic effect (CPE) was greater than 90%. Viral stocks in 25% sucrose media were snap frozen using liquid nitrogen to increase viral stability. Viral stock titers were quantified by tissue culture infectious dose 50% (TCID50) using 8,000 cells per well and 3-fold viral dilutions across a 96-well plate, cultured for 4 days. Viral stock titers were also quantified by a plaque forming unit assay, as described elsewhere.
Following extensive parameter testing, the final assay is run as follows: Hep-2 cells are seeded into the inner 60 wells of a 96-well plate at 8,000 cells per well in a volume of 50 μL using Growth Media (DMEM without phenol red, 1% L-Glut, 1% Penn/Strep, 1% nonessential amino acids, 10% heat-inactivated FBS). 2-fold serial dilutions of control and test compounds are added to the wells in duplicate in a total volume of 25 μL. Viral stock is then added to the wells at a multiplicity of infection (MOI) of 0.1 in a volume of 25 μL, bringing the total volume of each well to 100 μL. The MOI is calculated using the PFU/mL, or TCID50 if unavailable. Each 96-well plate has a control column of 6 wells with cells and virus but no compound (negative control, max CPE), a column with cells but no compound or virus (positive control, minimum CPE), and a column with no cells or virus or compound (background plate/reagent control). The control wells with cells but no virus are given an additional 25 μL of growth media containing an equal quantity of sucrose as those wells receiving the viral stock in order to keep consistent in media and volume conditions. The outer wells of the plate are filled with 125 μL of moat media (DMEM, 100 Penn/Strep) to act as a thermal and evaporative moat around the test wells. Following a 5-day incubation period, the plates are read using ATPlite (50 uL added per well), which quantifies the amount of ATP (a measure of cell health) present in each well. Assay plates are read using the Envision luminometer. […] EC50 ranges are as follows: A<0.01 μM; B 0.01-0.05 μM; C>0.05 μM.

| EC50 | SMILES |
| --- | --- |
| 10 to 50 nM | COc1cc(C(=O)NC[C@](O)(c2cc(C3(C(N)=O)CC3)c(F)c(-c3cc(Cl)c(F)cc3F)n2)C2CC2)cc2cn(C3CC3)nc12 (single isomer, unassigned) [Example 11] |
| 10 to 50 nM | COc1cc(C(=O)NC[C@](O)(c2cc(C3(C#N)CC3)c(F)c(-c3cc(Cl)c(F)cc3F)n2)C2CC2)cc2cn(C3CC3)nc12 (single isomer, unassigned) [Example 12] |
| 10 to 50 nM | COc1cc(C(=O)NC[C@](O)(c2cc(C3(C(N)=O)CC3)c(F)c(-c3cc(Cl)c(F)cc3F)n2)C2CC2)cc2cn(C3(F)CC3)nc12 (single isomer, unassigned) [Example 13] |
| 10 to 50 nM | NC(=O)C1(c2cc([C@@](O)(CNC(=O)c3cc(OC4CC4)c4nn(C5CC5)cc4c3)C3CC3)nc(-c3cc(Cl)c(F)cc3F)c2F)CC1 (single isomer, unassigned) [Example 14] |
| 10 to 50 nM | N#CC1(c2cc([C@@](O)(CNC(=O)c3cc(OC4CC4)c4nn(C5CC5)cc4c3)C3CC3)nc(-c3cc(Cl)c(F)cc3F)c2F)CC1 (single isomer, unassigned) [Example 15] |
| 10 to 50 nM | NC(=O)C1(c2cc([C@@](O)(CNC(=O)c3cc(OC4CC4)c4nn(C5(F)CC5)cc4c3)C3CC3)nc(-c3cc(Cl)c(F)cc3F)c2F)CC1 (single isomer, unassigned) [Example 16] |
| 10 to 50 nM | N#CC1(c2cc([C@@](O)(CNC(=O)c3cc(OC4CC4)c4nn(C5(F)CC5)cc4c3)C3CC3)nc(-c3cc(Cl)c(F)cc3F)c2F)CC1 (single isomer, unassigned) [Example 17] |
| < 10 nM | COc1cc(C(=O)NC[C@](O)(c2cc(C3(C(N)=O)CC3)cc(-c3ccc(F)c(Cl)c3F)n2)C2CC2)cc2cn(C(F)F)nc12 (single isomer, unassigned) [Example 27] |
| 10 to 50 nM | COc1cc(C(=O)NC[C@](O)(c2cc(C(F)(F)C(N)=O)c(F)c(-c3ccc(F)c(Cl)c3F)n2)C2CC2)cc2cn(C3CC3)nc12 (single isomer, unassigned) [Example 32] |
| < 10 nM | COc1cc(C(=O)NC[C@](O)(c2cc(C(F)(F)C(N)=O)c(F)c(-c3ccc(F)c(Cl)c3F)n2)C2CC2)cc2cn(C3(F)CC3)nc12 (single isomer, unassigned) [Example 33] |

What follows are compounds tested on HMPV A2 TN/94-49 (assay: HMPV antiviral assay: LLC-MK2 cells, ATP-Lite readout). Conditions: LLC-MK2, 168 h, MOI 0.005, 7 days incubation.
Type: cell-based
Experimental: In vitro HMPV antiviral activity was evaluated using the clinical isolate A2 strain TN 94-49 and LLC-MK2 cells (ATCC #CCL-7), an immortalized kidney epithelial cell line from Macaca mulatta. Compounds were resuspended in dimethyl sulfoxide (DMSO) at 10 mM, serially diluted and added to a 384-well source plate. Subsequently, the compounds were diluted and transferred onto 384-well assay plates using the Echo-650 automated liquid handling system (Beckman Coulter, Indiana). The test compounds were assessed in duplicate at a top concentration of 2 μM followed by 2.5-fold serial dilutions to give a total of 10 concentration points. DMSO control wells were also included on the assay plates and were either infected or not, acting as positive and negative controls. A2 TN 94-49 virus infections were performed in-suspension with LLC-MK2 cells. The cells were washed twice with PBS and removed from the cell-culture flask with 0.25% trypsin-EDTA (Thermo Fisher Scientific, MA). The trypsin-EDTA was inactivated by resuspending in 2% fetal bovine serum (FBS) and OptiMEM (ThermoFisher Scientific, MA) containing 1% penicillin-streptomycin. Cells were pelleted by centrifuging for 5 minutes at 800 rpm, the supernatant was removed, and cells were re-suspended and washed in PBS plus 100 μg/mL CaCl2). This step was performed twice. Cells were then re-suspended in serum-free (SF)-OptiMEM containing 4 μg/mL TPCK-Trypsin (Sigma Aldrich, MO), 1% penicillin-streptomycin (ThermoFisher Scientific, MA) and 100 μg/mL CaCl2). Cells were counted and seeded at a density of 5,000 cells/well, 12.5 μL/well. Virus infections were done at a multiplicity of infection (MOI) of 0.005 with 12.5 μL added per well. Virus infections were performed in infection media which contained SF-OptiMEM, 100 μg/mL CaCl2) and 1% penicillin-streptomycin. HMPV viral stocks are suspended in infection media+5% glycerol, thus an equal volume of infection media+5% glycerol was added to uninfected wells to equalize the final % glycerol across all wells of the assay plate. The final concentration of TPCK-trypsin was 2 μg/mL. The assay plates were incubated at 37° C., 5% CO2 for 7 days. After 7 days incubation, 12.5 μL of ATP-Lite (PerkinElmer, MA) was added to each well and the raw luminescence values were determined using the Envision 2104 (Perkin Elmer, MA). The average of the raw luminescence values for the cells and virus only positive control wells was subtracted from all conditions tested and the percent cell health was determined by dividing these values by the average of the cells only negative control wells. EC50 values were then calculated by non-linear regression using a four-parameter curve logistic equation. The curve fit model employed was XLFit Dose Response One Site Model 200: y=(A+(B/(1+((x/C)^D)))), where A is the minimum y value, B is the maximum y value, C is the log EC50 value, and D is the slope factor. […] EC50 ranges are as follows: A<1 μM; B>1 μM.

| SMILES | EC50 |
| --- | --- |
| COc1cc(C(=O)NC[C@](O)(c2cc(C3(O)COC3)c(F)c(-c3cc(Cl)c(F)cc3F)n2)C2CC2)cc2cn(C3(F)CC3)nc12 [Example 168] | > 1000 nM |
| COc1cc(C(=O)NC[C@](O)(c2cc(C3(O)COC3)c(F)c(-c3cc(Cl)c(F)cc3F)n2)C2CC2)cc2cn(C(F)F)nc12 [Example 169] | > 1000 nM |
| COc1cc(C(=O)NC[C@](O)(c2ccc(F)c(-c3cc(Cl)c(F)cc3F)n2)C2CC2)cc2cn(C3CC3)nc12 [Example 171] | > 1000 nM |
| COc1cc(C(=O)NC[C@](O)(c2ccc(F)c(-c3cc(F)c(F)cc3F)n2)C2CC2)cc2cn(C3CC3)nc12 [Example 172] | > 1000 nM |
| COc1cc(C(=O)NC[C@](O)(c2ccc(F)c(-c3cc(Cl)c(F)cc3F)n2)C2CC2)cc2cn(C3(F)CC3)nc12 [Example 173] | > 1000 nM |

Results, then the compound that gave them:

| EC50 | SMILES |
| --- | --- |
| > 1000 nM | COc1cc(C(=O)NC[C@](O)(c2ccc(F)c(-c3cc(Cl)c(F)cc3F)n2)C2CC2)cc2cn(C(F)F)nc12 [Example 174] |
| > 1000 nM | COc1cc(C(=O)NC[C@](O)(c2ccc(F)c(-c3cc(Cl)c(F)cc3F)n2)C2CC2)cc2cc(C)cnc12 [Example 175] |
| > 1000 nM | COc1cc(C(=O)NC[C@](O)(c2ccc(F)c(-c3cc(Cl)c(F)cc3F)n2)C2CC2)cc2cc(Cl)c(C)nc12 [Example 176] |
| > 1000 nM | COc1cc(C(=O)NC[C@](O)(c2cc(C(C)(C)F)c(F)c(-c3cc(Cl)c(F)cc3F)n2)C2CC2)cc2cc(C3CC3)nn12 [Example 178] |
| > 1000 nM | COc1cc(C(=O)NC[C@](O)(c2cc(C(C)(C)F)c(F)c(-c3cc(Cl)c(F)cc3F)n2)C2CC2)cc2cn(C(F)F)nc12 [Example 179] |
| > 1000 nM | COc1cc(C(=O)NC[C@@](O)(c2ccccc2)c2cc(C(C)(C)F)c(F)c(-c3cc(Cl)c(F)cc3F)n2)cc2cn(C3CC3)nc12 [Example 180] |
| > 1000 nM | COc1cc(C(=O)NC[C@@](O)(c2ccccc2)c2cc(C(C)(C)F)c(F)c(-c3cc(Cl)c(F)cc3F)n2)cc2cc(C3CC3)nn12 [Example 181] |
| > 1000 nM | COc1cc(C(=O)NC[C@@](O)(c2ccccc2)c2cc(C(C)(C)F)c(F)c(-c3cc(Cl)c(F)cc3F)n2)cc2cn(C(F)F)nc12 [Example 182] |
| < 1000 nM | [2H]C([2H])([2H])C(O)(c1cc([C@@](O)(CNC(=O)c2cc(OC)c3nn(C4CC4)cc3c2)C2CC2)nc(-c2cc(Cl)c(F)cc2F)c1F)C([2H])([2H])[2H] [Example 186] |
| < 1000 nM | [2H]C([2H])([2H])C(O)(c1cc([C@@](O)(CNC(=O)c2cc(OC)n3nc(C4CC4)cc3c2)C2CC2)nc(-c2cc(Cl)c(F)cc2F)c1F)C([2H])([2H])[2H] [Example 187] |
| < 1000 nM | [2H]C([2H])([2H])C(O)(c1cc([C@@](O)(CNC(=O)c2cc(OC)c3nn(C(F)F)cc3c2)C2CC2)nc(-c2cc(Cl)c(F)cc2F)c1F)C([2H])([2H])[2H] [Example 188] |
| > 1000 nM | COc1cc(C(=O)NC[C@@](O)(c2ccccc2)c2cc(C(=O)Nc3ncc[nH]3)c(F)c(-c3cc(Cl)c(F)cc3F)n2)cc2cn(C3CC3)nc12 [Example 190] |
| > 1000 nM | COc1cc(C(=O)NC[C@@](O)(c2ccccc2)c2cc(C(=O)Nc3ncco3)c(F)c(-c3cc(Cl)c(F)cc3F)n2)cc2cn(C3CC3)nc12 [Example 191] |
| > 1000 nM | CNC(=O)c1cc([C@@](O)(CNC(=O)c2cc(OC)c3nn(C4CC4)cc3c2)c2ccccc2)nc(-c2cc(Cl)c(F)cc2F)c1F [Example 192] |
| > 1000 nM | COc1cc(C(=O)NC[C@@](O)(c2ccccc2)c2cc(C(=O)NCC(C)(C)O)c(F)c(-c3cc(Cl)c(F)cc3F)n2)cc2cn(C3CC3)nc12 [Example 193] |
| > 1000 nM | COc1cc(C(=O)NC[C@@](O)(c2ccccc2)c2cc(C(=O)NC3CC3)c(F)c(-c3cc(Cl)c(F)cc3F)n2)cc2cn(C3CC3)nc12 [Example 194] |
| > 1000 nM | COc1cc(C(=O)NC[C@@](O)(c2ccccc2)c2cc(N3C(=O)CC[C@H]3C(N)=O)cc(-c3cc(Cl)c(F)cc3F)n2)cc2cn(C3CC3)nc12 [Example 196] |
| > 1000 nM | COc1cc(C(=O)NC[C@@](O)(c2ccccc2)c2cc(N3C(=O)CCC3C(N)=O)cc(-c3cc(Cl)c(F)cc3F)n2)cc2cn(C3CC3)nc12 (stereo partly shown) [Example 197] |
| > 1000 nM | COc1cc(C(=O)NC[C@@](O)(c2ccccc2)c2cc(N3CC[C@H](O)C3)cc(-c3cc(Cl)c(F)cc3F)n2)cc2cn(C3CC3)nc12 [Example 198] |

From patent US12162857B2, “Antiviral compounds” (priority 2022, dated 2024)
